Test results reported in patent US20240174744A1, “METHODS OF TREATMENT USING PROTEIN BINDERS TO IRHOM2 EPITOPES” (SCIRHOM GMBH, priority 2021, published 2024).

Key:
[1] = tested on: PMA-induced release of TGFα from PC3 cells; experiment: ELISA-based TGFα release assay, PMA-stimulated PC3 cells; assay type: cell-based; conditions: Homo sapiens, PC-3; recombinant murine antibodies 1 μg/ml; Batimastat 10 μM; PMA 25 ng/ml, 2 hours
Experimental: In the following study, ELISA-based TGFα release assays were performed to analyze the inhibitory effects of the antibodies of the present disclosure on PMA-induced release of endogenous TGFα from human PC3 prostate cancer cells.
(§1) In brief, on day 1, Nunc black MaxiSorp® 96-well plates (Thermo Fisher Scientific, USA) were coated overnight with 100 μl per well of goat anti-human TGFα capture antibody (provided as part of the DuoSet ELISA kit) at 0.4 μg/ml TBS at 4° C. On day 2, the capture antibody solution was removed and MaxiSorp® plates were blocked with 300 μl per well of TBS, 1% BSA at room temperature for 3 hours. […] Using an infinite M1000 (Tecan Group, Switzerland) microplate reader, the fluorescence of each well was collected at an excitation wavelength of 435 nm and an emission wavelength of 555 nm.

[2] = tested on: PMA-induced release of IL-6R from THP-1 cells; experiment: ELISA-based IL-6R release assay, PMA-stimulated THP-1 cells; assay type: cell-based; conditions: Homo sapiens, recombinant murine antibodies 1 μg/ml, Batimastat 10 μM, PMA 25 ng/ml, 1 hour
Experimental: In the following study, ELISA-based IL-6R release assays were performed to analyze the inhibitory effects of the antibodies of the present disclosure on PMA-induced release of endogenous IL-6R from human THP-1 monocytic cells.
as §1, with “coated for 7 hours” for “coated overnight”, “of mouse” for “of goat”, “anti-human IL-6R” for “anti-human TGFα”, “at 2” for “at 0.4”, “at room temperature. Capture” for “at 4° C. On day 2, the capture”, “for 1.5” for “for 3”

CNC(=O)[C@H](Cc1ccccc1)NC(=O)[C@H](CC(C)C)[C@H](CSc1cccs1)C(=O)NO [Batimastat]
inhibition at 10 µM [1]: 99.1%
inhibition at 10 µM [2]: 88.6%
